One block for each compound: values may come before it.
Legend:
[1] = test system: Li promastigotes; assay: Drug combination with DhiS-A, Chou-Talalay method (CalcuSyn); format: cell-based, Leishmania infantum; conditions: for Dose Required of Dn in combination with DhiS-A: computer-simulated; for DRI of Dn in combination with DhiS-A: fold dose reduction vs single agent
Experimental: Fixed-combination ratios of drugs were based on the IC50 values determined for the individual molecules. Mid-log-phase promastigotes of Li were exposed for 24 h at constant ratios of 0.01:15 (AmB:DhiS-A), 1:1 (Sb^III:DhiS-A) and 5:1 (PMM:DhiS-A). Dose–response curves of the combinations were analyzed with the Chou–Talalay method, based on the theorem of combination index (CI)-isobologram and CalcuSyn software. This method allows the evaluation of the type of interaction between two molecules according to mass action law. Results can be used to determine quantitatively the synergy (CI < 1), additive effect (CI = 1) or antagonism (CI > 1) of combinations. Moreover, the program allows the calculation of the drug reduction index (DRI): dose reduction in drug combinations to reach a given inhibition compared to the activity of the individual drugs.

[2] = test system: Ld promastigotes; assay: Multiplication of Ld promastigotes in vitro (CellTiter-Glo, 24 h); format: cell-based, L. donovani; conditions: Leishmania donovani; for inhibition of growth at 120 µM: compared to untreated cultures, mean ± SD, read-out: Reduction (%) of multiplication, L. donovani promastigotes
Experimental: (§1) Growth was estimated by the addition of CellTiter-Glo® (Promega, Madison, WI, USA) (1:1) in 96-well microtiter white plates (Costar, Corning). After 10 min incubation (light protected, room temperature), luminescence was determined with FLUOstar Omega (BMG Labtech) reader. Sensitivity of Ld was similarly performed with promastigotes exposed to 120 μM. Control cultures (medium, untreated promastigotes, promastigotes treated with 0.2 μM AmB) were included. Experiment was carried out in triplicate and results expressed as % of inhibition of untreated control. Approximate IC50 values of the flavonolignans showing the highest inhibitory activity against Li mid-log-phase promastigotes were determined using dose-response curves. […] The compound with the highest activity, DhiS-A, was assayed against Ld promastigotes using the latter dilution series and the same culture conditions as above. For comparative purposes, mid-log promastigotes of Li and Ld were exposed to established anti-Leishmania agents: AmB (0.0078 μ[…] and 1.0 μM); […]

[3] = test system: intracellular amastigotes of Li BCN150; assay: Activity against intracellular amastigotes ex vivo in mouse peritoneal Mφ; format: cell-based, Leishmania infantum; conditions: 24 h
Experimental: Antiproliferative activity of flavonolignans against intracellular amastigotes was determined ex vivo using mouse peritoneal Mφ. Infections were carried out following the method and modifications described by us. Briefly, Mφ were seeded onto 8-well cell culture slides (SLP, Lifesciences Co., Pocheon, Korea) in a final volume of 400 µL (2.5 × 10^4 Mφ/well). Plates were incubated overnight at 37 °C under humidified 5% CO2/95% air atmosphere to facilitate adherence. Stationary-phase promastigotes of Ld and Li were centrifuged (370× g, 10 min) without break in a Ficoll (Sigma, Saint Louis, MO, USA) gradient (0%, 10% in Medium 199 and 30% in sterile phosphate-buffered saline). Metacyclic promastigotes, located in the 10–30% Ficoll interphase, were recovered, washed and opsonized in 15% normal mouse serum in 1:1 solution of RPMI and HBSS medium (Gibco, Life Technologies, Paisley, UK), 0.15 mM CaCl2 and 1 mM MgCl2 at 37 °C, 5% CO2 atmosphere for 30 min. Purified metacyclic promastigotes were added to the Mφ cultures using a ratio 4:1 (promastigotes:Mφ) for Li and 10:1 for Ld. Plates were incubated at 33 °C overnight as above. Noninternalized promastigotes were eliminated by repeated washing with fresh medium. Treatments (10 µM) were added to the cultures and kept for 24 h. Slides were methanol-fixed and stained with May–Grünwald Giemsa (Merck) to determine the % of infection and the number of amastigotes/100 Mφ under microscope. Cultures untreated, treated with 0.05% DMSO and treated with 0.1 µM AmB were included as controls. Experiments were done in triplicate and the activity was expressed as % of inhibition compared to untreated cultures.

[4] = test system: Li UCM9 promastigotes; assay: Multiplication of Li promastigotes in vitro (CellTiter-Glo, 24 h); format: cell-based, Leishmania infantum; conditions: Leishmania infantum; for inhibition of growth at 120 µM: compared to untreated cultures, mean ± SD, read-out: Reduction (%) of multiplication, L infantum promastigotes; for Emax: exploratory screening, 0.94 µM up to 120 µM, read-out: Maximal effect (inhibition of growth of control cultures) on Li promastigotes
Experimental: as §1

[5] = test system: BALB/c mouse peritoneal macrophages, Mφ; assay: Toxicity of flavonolignans for macrophages (CellTiter-Glo); format: cell-based; conditions: Peritoneal macrophage, 24 h, 28.125 to 900 µM, approximate
Experimental: Toxicity of flavonolignans for mammalian cells was determined using mouse peritoneal Mφ. Cells obtained were counted and seeded onto 96-well cultures plates (Costar, Corning) at a final concentration of 5 × 10^4 Mφ/well (100 µL/well). Plates were incubated overnight at 37 °C and humidified 5% CO2/95% air to facilitate adherence. Cells were cultured as above for 24 h with different concentrations of the flavonolignans (28.125 µM, 56.25 µM, 112.5 µM, 225 µM, 450 µM and 900 µM). After incubation, cell viability was determined with CellTiter-Glo® as previously described. Untreated and 300 µM AmB-treated control wells were included. Experiments were done in triplicate and approximate IC50 determined.

IC50 ([2]; approximate, dose-response curve): ~0.06 µM
Structure (SMILES): C[C@@H]1[C@H](O)[C@@H](C)/C=C/C=C/C=C/C=C/C=C/C=C/C=C/[C@H](O[C@@H]2O[C@H](C)[C@@H](O)[C@H](N)[C@@H]2O)C[C@@H]2O[C@](O)(C[C@@H](O)C[C@@H](O)[C@H](O)CC[C@@H](O)C[C@@H](O)CC(=O)O[C@H]1C)C[C@H](O)[C@H]2C(=O)O [AmB, amphotericin B]
CI value of combination Dn + DhiS-A ([1]; ED10 (10% growth inhibition), constant ratio Dn:DhiS-A (AmB 0.01:15)): 1.49 (antagonism)
Dose Required of Dn in combination with DhiS-A ([1]; ED10): 0.023 µM
DRI of Dn in combination with DhiS-A ([1]; ED10): 2.85
CI value of combination Dn + DhiS-A ([1]; ED25 (25% growth inhibition), constant ratio Dn:DhiS-A (AmB 0.01:15)): 1.24 (moderate antagonism)
Dose Required of Dn in combination with DhiS-A ([1]; ED25): 0.030 µM
DRI of Dn in combination with DhiS-A ([1]; ED25): 2.74
CI value of combination Dn + DhiS-A ([1]; ED50 (50% growth inhibition), constant ratio Dn:DhiS-A (AmB 0.01:15; Sb^III 1:1; PMM 5:1)): 1.06 (additive effect)
Dose Required of Dn in combination with DhiS-A ([1]; ED50): 0.038 µM
DRI of Dn in combination with DhiS-A ([1]; ED50): 2.64
CI value of combination Dn + DhiS-A ([1]; ED75 (75% growth inhibition), constant ratio Dn:DhiS-A (AmB 0.01:15; Sb^III 1:1; PMM 5:1)): 0.92 (additive effect)
Dose Required of Dn in combination with DhiS-A ([1]; ED75): 0.048 µM
DRI of Dn in combination with DhiS-A ([1]; ED75): 2.54
CI value of combination Dn + DhiS-A ([1]; ED90 (90% growth inhibition), constant ratio Dn:DhiS-A (AmB 0.01:15; Sb^III 1:1; PMM 5:1)): 0.81 (moderate synergism)
Dose Required of Dn in combination with DhiS-A ([1]; ED90): 0.062 µM
DRI of Dn in combination with DhiS-A ([1]; ED90): 2.39
Dose Required of Dn in combination with DhiS-A ([1]; ED95): 0.074 µM
Type of interaction with DhiS-A ([1]; Li promastigotes, fixed ratios AmB 0.01:15, Sb^III 1:1, PMM 5:1 (Dn:DhiS-A)): moderate synergism
Reduction of the number of Mφ infected, Li ([3]; 0.1 µM): 50.0 ± 6.93%
Reduction of the number of amastigotes/100 Mφ, Li ([3]; 0.1 µM): 57.63 ± 11.47%
IC50 ([4]; approximate, dose-response curve, 24 h): ~0.06 µM

Structure (SMILES): COc1cc([C@H]2Oc3cc(-c4oc5cc(O)cc(O)c5c(=O)c4O)ccc3O[C@@H]2CO)ccc1O [Dehydrosilybin A, dehydrosilybin A]
IC50 [5]: ~60 µM
inhibition of growth at 120 µM [2]: -38.7 ± 5.41%
Reduction of Mφ infection, Li ([3]; 10 µM): 40.13 ± 12.6%
Reduction of intracellular amastigotes, Li ([3]; 10 µM): over 50%
inhibition of growth at 120 µM ([4]; 24 h): 10.2 ± 6.97%

Structure (SMILES): COc1cc(C2Oc3cc(-c4oc5cc(O)cc(O)c5c(=O)c4O)ccc3OC2CO)ccc1O (stereo not shown) [Dehydrosilybin AB, dehydrosilybin AB]
IC50 [5]: ~37 µM
inhibition of growth at 120 µM [2]: 9.01 ± 3.59%
inhibition of growth at 120 µM ([4]; 24 h): 17.9 ± 4.33%
Emax [4]: < 50%

Structure (SMILES): COc1cc([C@@H]2Oc3cc(-c4oc5cc(O)cc(O)c5c(=O)c4O)ccc3O[C@H]2CO)ccc1O [Dehydrosilybin B, dehydrosilybin B]
IC50 [5]: ~41.2 µM
inhibition of growth at 120 µM [2]: 38.1 ± 2.9%
inhibition of growth at 120 µM ([4]; 24 h): 20.9 ± 11.6%

Structure (SMILES): COc1cc([C@@H]2Oc3c(O)cc(-c4oc5cc(O)cc(O)c5c(=O)c4O)cc3[C@H]2CO)ccc1O [Dehydrosilychristin A, dehydrosilychristin A]
IC50 [5]: ~40 µM
inhibition of growth at 120 µM [2]: 46.7 ± 1.24%
inhibition of growth at 120 µM ([4]; 24 h): 30.6 ± 3.33%
Emax [4]: < 50%

Structure (SMILES): COc1cc(C2C3C=C(c4oc5cc(O)cc(O)c5c(=O)c4O)C4C2COC4(O)C3=O)ccc1O (stereo not shown) [Dehydrosilydianin, dehydrosilydianin]
inhibition of growth at 120 µM [2]: 29.8 ± 2.17%
inhibition of growth at 120 µM ([4]; 24 h): 42.2 ± 5.42%
Emax [4]: < 50%

From paper PMC6100512, “In-Vitro Activity of Silybin and Related Flavonolignans against Leishmania infantum and L. donovani” (Molecules : A Journal of Synthetic Chemistry and Natural …, 2018)
